Columns and labels:
Type in all cases: in vivo
[1] = tested on: Matricaria inodora (MATIN); assay: A. Herbicidal pre-emergence efficacy, MATIN
Method in brief: (§1)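 Pre-emergence soil-surface spray in sandy loam pots, WP/EC in water plus 0.5% additive, 600 L/ha. Visual % damage rating after about 3 weeks in greenhouse vs. untreated; 0% = control-like, 100% = dead plants. Rates up to 1280 g/ha.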

[2] = tested on: Poa annua (POAAN); assay: A. Herbicidal pre-emergence efficacy, POAAN
Method in brief: as §1

[3] = tested on: Abutilon theophrasti (ABUTH); assay: B. Herbicidal post-emergence efficacy, ABUTH; details: rated visually after about 3 weeks
Method in brief: (§2)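 Readout: visual % kill vs untreated, ~3 wk post-spray. Plants in sandy loam pots, treated at one-leaf stage; spray = WP/EC in water + 0.5% additive, 600 L/ha, dose ≤1280 g/ha.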

[4] = tested on: Stellaria media (STEME); assay: B. Herbicidal post-emergence efficacy, STEME
Method in brief: as §2

[5] = tested on: Amaranthus retroflexus (AMARE); assay: C. Herbicidal pre-emergence efficacy, AMARE; details: scored after about 3 weeks
Method in brief: (§3)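 Pre-emergence test: formulated compounds sprayed as aqueous suspension or emulsion with 0.5% additive at 600 l/ha onto soil covering sown seeds, at rates corresponding to 320 g/ha or less. After about 3 weeks in greenhouse, efficacy scored visually as percent versus untreated controls (100% = plants dead).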

[6] = tested on: Lolium rigidum (LOLRI); assay: C. Herbicidal pre-emergence efficacy, LOLRI; details: scored after about 3 weeks
Method in brief: as §3

[7] = tested on: Polygonum convolvulus (POLCO); assay: E. Herbicidal post-emergence efficacy, POLCO
Method in brief: (§4)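 Greenhouse post-emergence spray, one-leaf stage (2–3 wk after sowing, sandy loam); WP/EC formulation, aqueous + 0.5% additive, 600 l/ha water; rates 320 g/ha or less. Visual rating ~3 wk later vs untreated; 0% = control-like, 100% = dead.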

[8] = tested on: Veronica persica (VERPE); assay: E. Herbicidal post-emergence efficacy, VERPE
Method in brief: as §4

[9] = 320 g/ha, scored visually after about 3 weeks vs untreated controls
[10] = pre-emergence, dosage 1280 g/ha

O=S(=O)(CCC(F)(F)F)Oc1ccccc1Oc1ncc(Cl)cn1 [Example I-8]
Pre-emergence efficacy against MATIN [1, 9]: 90% | Pre-emergence efficacy against MATIN [1, 10]: 100% | Pre-emergence efficacy against POAAN ([2]; dosage 80 g/ha): 90% | Pre-emergence efficacy against POAAN ([2]; dosage 320 g/ha): 100% | Pre-emergence efficacy against POAAN ([2]; dosage 1280 g/ha): 100% | Post-emergence efficacy against ABUTH in % ([3]; 1280 g/ha): 90% | Post-emergence efficacy against STEME ([4]; 320 g/ha): 90% | Post-emergence efficacy against STEME ([4]; 1280 g/ha): 90% | Pre-emergence efficacy against AMARE ([5]; 80 g/ha): 100% | Pre-emergence efficacy against AMARE ([5]; 320 g/ha): 100% | Pre-emergence efficacy against LOLRI ([6]; 320 g/ha): 100% | Post-emergence efficacy against POLCO in % ([7]; application rate 80 g/ha): 90% | Post-emergence efficacy against POLCO in % ([7]; application rate 320 g/ha): 90% | Post-emergence efficacy against VERPE in % ([8]; application rate 80 g/ha): 90% | Post-emergence efficacy against VERPE in % ([8]; application rate 320 g/ha): 100%

O=S(=O)(CCCC(F)(F)F)Oc1ccccc1Oc1ncc(Cl)cn1 [Example I-10]
Pre-emergence efficacy against MATIN [1, 9]: 100% | Pre-emergence efficacy against MATIN [1, 10]: 100% | Pre-emergence efficacy against POAAN ([2]; dosage 80 g/ha): 100% | Pre-emergence efficacy against POAAN ([2]; dosage 320 g/ha): 100% | Pre-emergence efficacy against POAAN ([2]; dosage 1280 g/ha): 100% | Post-emergence efficacy against ABUTH in % ([3]; 80 g/ha): 90% | Post-emergence efficacy against ABUTH in % ([3]; 320 g/ha): 90% | Post-emergence efficacy against ABUTH in % ([3]; 1280 g/ha): 90% | Post-emergence efficacy against STEME ([4]; 80 g/ha): 90% | Post-emergence efficacy against STEME ([4]; 320 g/ha): 90% | Post-emergence efficacy against STEME ([4]; 1280 g/ha): 100% | Pre-emergence efficacy against AMARE ([5]; 80 g/ha): 100% | Pre-emergence efficacy against AMARE ([5]; 320 g/ha): 100% | Pre-emergence efficacy against LOLRI ([6]; 80 g/ha): 90% | Pre-emergence efficacy against LOLRI ([6]; 320 g/ha): 100% | Post-emergence efficacy against POLCO in % ([7]; application rate 80 g/ha): 90% | Post-emergence efficacy against POLCO in % ([7]; application rate 320 g/ha): 100% | Post-emergence efficacy against VERPE in % ([8]; application rate 80 g/ha): 100% | Post-emergence efficacy against VERPE in % ([8]; application rate 320 g/ha): 100%

Reference: patent US20240174618A1, “SUBSTITUTED (2-HETEROARYLOXYPHENYL)SULFONATES, SALTS THEREOF AND THEIR USE AS HERBICIDAL AGENTS” (Bayer Aktiengesellschaft, priority 2021, published 2024)
